Data on 2 compounds can be found in patent US4537894A, “Methods of using compositions having antithrombotic and anti-blood-platelet-aggregating activity” (priority 1978, dated 1985).

Entries after “also recorded” stand apart in the source; their conditions may differ. Where a name gives a salt, the structure may show the parent alone.

For series [1], the system named is blood platelets (collagen-induced aggregation). In words: collagen-induced blood-platelet aggregation after oral treatment. Format: in vivo, Wistar rats. The following applies: Rattus norvegicus, read-out: Percent Inhibition, Collagen. The method, then: Blood was taken from the jugular vein of Wistar rats. […] 0.4 ml plasma is placed in a siliconized tube provided with a magnet bar which is also siliconized. The tube is introduced into an aggregometer coupled with an apparatus which records the optical density variations. […] Blood-platelet-aggregation produces then an increase of light transmission followed by a decrease subsequent to the deaggregation phase. The maximum optical density variation thus determined characterizes the intensity of the aggregation. (b) Determination of collagen-induced blood-platelet-aggregation The A.D.P. solution is substituted with a collagen solution (bovine tendon extract).

The subject of series [2] is blood platelets (A.D.P. induced aggregation). In words: A.D.P. induced blood-platelet aggregation after oral treatment. Format: in vivo, Wistar rats. The note with it: Rattus norvegicus, read-out: Percent Inhibition, A.D.P. How it is done:
Blood was taken from the jugular vein of Wistar rats. […] (a) Determination of A.D.P. induced blood-platelet aggregation 0.4 ml plasma is placed in a siliconized tube provided with a magnet bar which is also siliconized. The tube is introduced into an aggregometer coupled with an apparatus which records the optical density variations. When light transmission has reached a stable value, 0.5 ml of a solution containing 10μ M A.D.P. (adenosine-di-phosphate) is added to the tube. Blood-platelet-aggregation produces then an increase of light transmission followed by a decrease subsequent to the deaggregation phase. The maximum optical density variation thus determined characterizes the intensity of the aggregation.

In series [3] the test system is Mongrel dogs. In words: survival on the 7th day after adrenalin infusion. The note with it: for number of animals that survived on the 7th day after adrenalin infusion: oral, twice a day, 4 days, control 2/5; for survival time, in words: adrenalin infusion, dogs. The class given is in vivo. The method, then:
(§1) This investigation concerned myocardial necrosis induced in animals under severe stress conditions which may be reproduced by infusion of adrenalin.
(§2) Mongrel dogs of either sex, weighing about 10 kg, were distributed into groups of 5 animals each: except for one group of untreated dogs (controls, Group 1), the other groups were orally administered the test material, twice a day, for 4 days, repsectively:
(§3) Eighteen hours after the last treatment the dogs were anesthetized with phenobarbital (25 mg/kg, i.v.); a catheter was placed in the femoral artery, the blood pressure was recorded via a STAHAM P 23 GD sensor and the ECG was recorded (D1 and D2) with a RACIA polygraph. The adrenalin was infused by the cephalic route at a dosage of 4 μg/kg/mn at a rate of 2 ml/mn for 4 hours.
(§4) The animals were freed from the catheters and were allowed to wake up. The animals which survived 7 days later were sacrificed and autopsied; the hearts were cut out and examined macroscopically prior to taking samples for histological examination. Any macroscopic anomalies are rated according to the following code (Table II) which was established arbitrarily and which takes into account the extent of the damages (p.9).
The number of animals that survived on the 7th day after adrenalin infusion is reported below: […]

Series [4] relates to myocardial necrosis. In words: adrenalin-induced myocardial necrosis, macroscopic lesions. Format: in vivo, Mongrel dogs. The note with it: for Macroscopic Lesions, necrosis score: oral, twice a day, 4 days, control 18.0; for necrosis / macroscopic lesions, in words: adrenalin infusion, dogs, vs controls. How it is done: as §1, §3, §4
Series [5] relates to blood platelets. In words: blood-platelet count before and after adrenalin infusion. The following applies: for Blood-platelet count, change prior to and after adrenalin infusion: oral, twice a day, 4 days, controls 32.4% decrease; for number of blood-platelets, in words: adrenalin infusion, dogs. Format: in vivo, Mongrel dogs. The method, then:
as §1, §2, §3
Arterial blood samples were taken before and after the end of the infusion, to effect the blood-platelet counts.

For series [6], the system named is platelet aggregation (antigen-antibody complexes). The note with it: Packham et al 1967; cited from earlier work.
For series [7], the system named is platelet aggregation (collagen). The following applies: Packham et al 1967; cited from earlier work.
Series [8] relates to platelet. The following applies: in man; Goodman and Gilman 1975; cited from earlier work.
Series [9] is described as follows: acute toxicity, LD50, rabbits. The note with it: rabbit, in vivo, iv, Miller & Tainter method, read-out: LD50 /24 hrs/kg body weight. From the text:
The tests carried out concerned:

Series [10] is described as follows: acute toxicity, LD50, mice. The following applies: mouse, in vivo.
Series [11] can be described thus: acute toxicity, LD50, rats. The note with it: rat, in vivo.
The mark [12] stands for this setting: Group 2: 50 mg/kg ticlopidine hydrochloride.
Setting [13] is: Group 3: 100 mg/kg ticlopidine hydrochloride.
Setting [14] is: Group 4: 10 mg/kg sulfinpyrazone, oral, 3 hours after treatment, vs control.
Setting [15] is: Group 5: 20 mg/kg sulfinpyrazone, oral, 3 hours after treatment, vs control.
The mark [16] stands for this setting: Group 4: 20 mg/kg sulfinpyrazone.
The mark [17] stands for this setting: Group 5: 40 mg/kg sulfinpyrazone.

In the case of `Clc1ccccc1CN1CCc2sccc2C1` [ticlopidine hydrochloride, 5-(2-chloro-benzyl)-4,5,6,7-tetrahydro-thieno[3,2-c]pyridine], the inhibition at 25 mg/kg amounted to 48.6% in series [1] (po, 3 h) and 28.5% in [2] (po, 3 h). In addition, the inhibition at 50 mg/kg was found to be 58.3% in series [1] (po, 3 h) and 40.6% in [2] (po, 3 h). The “number of animals that survived on the 7th day after adrenalin infusion” value was 3/5 in series [3] (setting [12]) and 4/5 in [3] (setting [13]). For the same compound, the “survival time, in words” value in [3] is on record as “improves the survival time”. Further, the “Macroscopic Lesions, necrosis score” value in series [4] (setting [12]) is 6.8; in [4] (setting [13]) it was 4.8. Also, the “necrosis / macroscopic lesions, in words” value in series [4] was “significant protection against myocardia necrosis”. Besides, the “Blood-platelet count, change prior to and after adrenalin infusion” value in series [5] (setting [12]) is recorded as “+14%”; in series [5] (setting [13]) it was “+13.2%”. Also, the “number of blood-platelets, in words” value in series [5] is recorded as “increases the number of blood-platelets”.

Regarding `O=C1C(CC[S+]([O-])c2ccccc2)C(=O)N(c2ccccc2)N1c1ccccc1` (stereo not shown) [sulfinpyrazone, 1,2-diphenyl-(2'-phenylsulfinyl-ethyl)pyrazolidine-3,5-dione], in series [6], the “platelet aggregation in response to antigen-antibody complexes” value is “blocks platelet aggregation”. In [7], the “platelet aggregation in response to collagen” value was “blocks platelet aggregation”. Further, the values for the inhibition at 10 mg/kg in series [1] (setting [14]) and in series [2] (setting [14]) were 12.7% and 8.7%, respectively. For the same compound, the values for the inhibition at 20 mg/kg in series [1] (setting [15]) and in [2] (setting [15]) were 20.5% and 14.1%, respectively. Besides, the platelet survival result in series [8] is reported as “prolongs platelet survival”. Besides, the LD50 at 24 h in [9] was 195 mg/kg; in [10] (iv), 240 mg/kg; in series [10] (po), 298 mg/kg; in [11] (iv) it was 154 mg/kg; in series [11] (po), 375 mg/kg. Moreover, the “number of animals that survived on the 7th day after adrenalin infusion” value in series [3] (setting [16]) and in series [3] (setting [17]) was 2/5 each time. Also, in series [3], the “survival time, in words” value is listed as “no effect”. Also, the “Macroscopic Lesions, necrosis score” value in series [4] (setting [16]) is listed as 18.2; in series [4] (setting [17]), 17.4. In series [4], the “necrosis / macroscopic lesions, in words” value is recorded as “substantially identical with those of the controls; also recorded: no effect”. Moreover, the “Blood-platelet count, change prior to and after adrenalin infusion” value in [5] (setting [16]) is recorded as -12%; in series [5] (setting [17]), -7%. Besides, the “number of blood-platelets, in words” value in [5] is reported as “no effect”.
